Values after ≈ are worked out from the molar mass of the structure shown.
What follows are compounds tested on Saur 9213 (assay: MIC test, standard agar dilution method). Details: Mueller Hinton agar, incubated overnight at 35° C., lowest concentration that inhibits visible growth.
Assay type: cell-based
Text: The oxazolidinone antibacterial agents of this invention have useful activity against a variety of organisms. The in vitro activity of compounds of this invention can be assessed by standard testing procedures such as the determination of minimum inhibitory concentration (MIC) by agar dilution as described in “Approved Standard. Methods for Dilution Antimicrobial Susceptibility Tests for Bacteria That Grow Aerobically”, 3rd. ed., published 1993 by the National Committee for Clinical Laboratory Standards, Villanova, Pa., USA. MIC Test Method The in vitro MICs of test compounds were determined by a standard agar dilution method. A stock drug solution of each analog was prepared in the preferred solvent, usually DMSO:H2O (1:3). Serial 2-fold dilutions of each sample are made using 1.0 ml aliquots of sterile distilled water. To each 1.0 ml aliquot of drug was added 9 ml of molten Mueller Hinton gar medium. The drug-supplemented agar was mixed, poured into 15×100 mm petri dishes, and allowed to solidify and dry prior to inoculation. Vial of each of the test organisms are maintained frozen in the vapor phase of a liquid nitrogen freezer. Test cultures are grown overnight at 35° C. on the medium appropriate for the organism. Colonies are harvested with a sterile swab, and cell suspensions are prepared in Trypticase Soy broth (TSB) to equal the turbidity of a 0.5 McFarland standard. A 1:20 dilution of each suspension was made in TSB. The plates containing the drug supplemented agar are inoculated with a 0.001 ml drop of the cell suspension using a Steers replicator, yielding approximately 10^4 to 10^5 cells per spot. The plates are incubated overnight at 35° C. Following incubation the Minimum Inhibitory Concentration (MIC μg/ml), the lowest concentration of the drug that inhibits visible growth of the organism, was read and recorded.
`O=C1CCC(c2c(F)cc(N3C[C@H](CNC(=O)C(Cl)Cl)OC3=O)cc2F)CN1` (stereo partly drawn) [Example 7, 2,2-dichloro-N-({(5S)-3-[3,5-difluoro-4-(6-oxopiperidin-3-yl)phenyl]-2-oxo-1,3-oxazolidin-5-yl}methyl)acetamide] showed an MIC of 2 mg/L (≈ 4.58 µM).
With `CC(=O)NC[C@H]1CN(c2ccc(C3CCC(=O)NC3)cc2)C(=O)O1` (stereo partly drawn) [Example 10, N-({(5S)-2-oxo-3-[4-(6-oxopiperidin-3-yl)phenyl]-1,3-oxazolidin-5-yl}methyl)acetamide] the MIC was 8 mg/L (≈ 24.1 µM).
In the case of `CC(=O)NC[C@H]1CN(c2cc(F)c(C3CCC(=O)NC3)c(F)c2)C(=O)O1` (stereo partly drawn) [Example 6, N-({(5S)-3-[3,5-difluoro-4-(6-oxopiperidin-3-yl)phenyl]-2-oxo-1,3-oxazolidin-5-yl}methyl)acetamide], the MIC is reported as 4 mg/L (≈ 10.9 µM).
`CC(=O)NC[C@H]1CN(c2cc(F)c(C3CCNC(=O)C3)c(F)c2)C(=O)O1` (stereo partly drawn) [Example 19, N-({(5S)-3-[3,5-difluoro-4-(2-oxopiperidin-4-yl)phenyl]-2-oxo-1,3-oxazolidin-5-yl}methyl)acetamide] gave an MIC of 4 mg/L (≈ 10.9 µM).
For `CCC(=O)NC[C@H]1CN(c2ccc(C3CCNC(=O)C3)c(F)c2)C(=O)O1` (stereo partly drawn) [Example 17, N-({(5S)-3-[3-fluoro-4-(2-oxopiperidin-4-yl)phenyl]-2-oxo-1,3-oxazolidin-5-yl}methyl)propanamide], the MIC was 4 mg/L (≈ 11 µM).
`CCC(=O)NC[C@H]1CN(c2ccc(C3CCC(=O)NC3)c(F)c2)C(=O)O1` (stereo partly drawn) [Example 2, N-({(5S)-3-[3-fluoro-4-(6-oxopiperidin-3-yl)phenyl]-2-oxo-1,3-oxazolidin-5-yl}methyl)propanamide] gave an MIC of 4 mg/L (≈ 11 µM).
`O=C1CCC(c2ccc(N3C[C@H](CNC(=O)C(F)F)OC3=O)cc2F)CN1` (stereo partly drawn) [Example 5, 2,2-difluoro-N-({(5S)-3-[3-fluoro-4-(6-oxopiperidin-3-yl)phenyl]-2-oxo-1,3-oxazolidin-5-yl}methyl)acetamide] showed an MIC of 4 mg/L (≈ 10.4 µM).
`CCC(=O)NC[C@H]1CN(c2ccc(C3CCNC(=O)C3)cc2)C(=O)O1` (stereo partly drawn) [Example 24, N-({(5S)-2-oxo-3-[4-(2-oxopiperidin-4-yl)phenyl]-1,3-oxazolidin-5-yl}methyl)propanamide] showed an MIC of 8 mg/L (≈ 23.2 µM).
With `CC(=O)NC[C@H]1CN(c2ccc(C3CCN(C)C(=O)C3)cc2)C(=O)O1` (stereo partly drawn) [Example 25, N-({(5S)-3-[4-(1-methyl-2-oxopiperidin-4-yl)phenyl]-2-oxo-1,3-oxazolidin-5-yl}methyl)acetamide] the MIC was 4 mg/L (≈ 11.6 µM).
Work on `O=C1CC(c2ccc(N3C[C@H](CNC(=S)C(F)F)OC3=O)cc2F)CCN1` (stereo partly drawn) [Example 18, 2,2-difluoro-N-({(5S)-3-[3-fluoro-4-(2-oxopiperidin-4-yl)phenyl]-2-oxo-1,3-oxazolidin-5-yl}methyl)ethanethioamide] yielded an MIC of 1 mg/L (≈ 2.49 µM).
Compound `CCC(=O)NC[C@H]1CN(c2cc(F)c(C3CCNC(=O)C3)c(F)c2)C(=O)O1` (stereo partly drawn) [Example 20, N-({(5S)-3-[3,5-difluoro-4-(2-oxopiperidin-4-yl)phenyl]-2-oxo-1,3-oxazolidin-5-yl}methyl)propanamide] has an MIC of 8 mg/L (≈ 21 µM).
With `O=C1CCC(c2ccc(N3C[C@H](CNC(=S)C(F)F)OC3=O)cc2)CN1` (stereo partly drawn) [Example 13, 2,2-difluoro-N-({(5S)-2-oxo-3-[4-(6-oxopiperidin-3-yl)phenyl]-1,3-oxazolidin-5-yl}methyl)ethanethioamide] the MIC was 2 mg/L (≈ 5.22 µM).
With `CC(=O)NC[C@H]1CN(c2ccc(C3CCNC(=O)C3)c(F)c2)C(=O)O1` (stereo partly drawn) [Example 16, N-({(5S)-3-[3-fluoro-4-(2-oxopiperidin-4-yl)phenyl]-2-oxo-1,3-oxazolidin-5-yl}methyl)acetamide] the MIC was 2 mg/L (≈ 5.72 µM).
In the case of `O=C1CCC(c2c(F)cc(N3C[C@H](CNC(=O)C(F)F)OC3=O)cc2F)CN1` (stereo partly drawn) [Example 9, N-({(5S)-3-[3,5-difluoro-4-(6-oxopiperidin-3-yl)phenyl]-2-oxo-1,3-oxazolidin-5-yl}methyl)-2,2-difluoroacetamide], the MIC is reported as 4 mg/L (≈ 9.92 µM).
With `O=C1CC(c2ccc(N3C[C@H](CNC(=S)C(F)F)OC3=O)cc2)CCN1` (stereo partly drawn) [Example 23, 2,2-difluoro-N-({(5S)-2-oxo-3-[4-(2-oxopiperidin-4-yl)phenyl]-1,3-oxazolidin-5-yl}methyl)ethanethioamide] the MIC was 1 mg/L (≈ 2.61 µM).
Work on `O=C1CC(c2c(F)cc(N3C[C@H](CNC(=S)C(F)F)OC3=O)cc2F)CCN1` (stereo partly drawn) [Example 21, N-({(5S)-3-[3,5-difluoro-4-(2-oxopiperidin-4-yl)phenyl]-2-oxo-1,3-oxazolidin-5-yl}methyl)-2,2-difluoroethanethioamide] yielded an MIC of 2 mg/L (≈ 4.77 µM).
For `CC(=O)NC[C@H]1CN(c2ccc(C3CCC(=O)NC3)c(F)c2)C(=O)O1` (stereo partly drawn) [Example 1, N-({(5S)-3-[3-fluoro-4-(6-oxopiperidin-3-yl)phenyl]-2-oxo-1,3-oxazolidin-5-yl}methyl)acetamide], the MIC was 4 mg/L (≈ 11.4 µM).
With `O=C1CCC(c2ccc(N3C[C@H](CNC(=O)C(Cl)Cl)OC3=O)cc2)CN1` (stereo partly drawn) [Example 12, 2,2-dichloro-N-({(5S)-2-oxo-3-[4-(6-oxopiperidin-3-yl)phenyl]-1,3-oxazolidin-5-yl}methyl)acetamide] the MIC was 4 mg/L (≈ 9.99 µM).
`O=C1CCC(c2ccc(N3C[C@H](CNC(=O)C(Cl)Cl)OC3=O)cc2F)CN1` (stereo partly drawn) [Example 3, 2,2-dichloro-N-({(5S)-3-[3-fluoro-4-(6-oxopiperidin-3-yl)phenyl]-2-oxo-1,3-oxazolidin-5-yl}methyl)acetamide] showed an MIC of 4 mg/L (≈ 9.56 µM).
With `CC(=O)NC[C@H]1CN(c2ccc(C3CCC(=O)N(C)C3)cc2)C(=O)O1` (stereo partly drawn) [Example 15, ({(5S)-3-[4-(1-methyl-6-oxopiperidin-3-yl)phenyl]-2-oxo-1,3-oxazolidin-5-yl}methyl)acetamide] the MIC was 8 mg/L (≈ 23.2 µM).
For `CC(=O)NC[C@H]1CN(c2ccc(C3CCNC(=O)C3)cc2)C(=O)O1` (stereo partly drawn) [Example 22, N-({(5S)-2-oxo-3-[4-(2-oxopiperidin-4-yl)phenyl]-1,3-oxazolidin-5-yl}methyl)acetamide], the MIC was 4 mg/L (≈ 12.1 µM).
With `O=C1CCC(c2c(F)cc(N3C[C@H](CNC(=S)C(F)F)OC3=O)cc2F)CN1` (stereo partly drawn) [Example 8, N-({(5S)-3-[3,5-difluoro-4-(6-oxopiperidin-3-yl)phenyl]-2-oxo-1,3-oxazolidin-5-yl}methyl)-2,2-difluoroethanethioamide] the MIC was 1 mg/L (≈ 2.38 µM).
In the case of `O=C1CCC(c2ccc(N3C[C@H](CNC(=S)C(F)F)OC3=O)cc2F)CN1` (stereo partly drawn) [Example 4, 2,2-difluoro-N-({(5S)-3-[3-fluoro-4-(6-oxopiperidin-3-yl)phenyl]-2-oxo-1,3-oxazolidin-5-yl}methyl)ethanethioamide], the MIC is reported as 1 mg/L (≈ 2.49 µM).
`O=C1CCC(c2c(F)cc(N3C[C@H](Cn4ccnn4)OC3=O)cc2F)CN1` (stereo partly drawn) [Example 26, 5-{2,6-difluoro-4-[(5R)-2-oxo-5-(1H-1,2,3-triazol-1-ylmethyl)-1,3-oxazolidin-3-yl]phenyl}piperidin-2-one] gave an MIC of 2 mg/L (≈ 5.3 µM).
`CCC(=O)NC[C@H]1CN(c2ccc(C3CCC(=O)NC3)cc2)C(=O)O1` (stereo partly drawn) [Example 11, N-({(5S)-2-oxo-3-[4-(6-oxopiperidin-3-yl)phenyl]-1,3-oxazolidin-5-yl}methyl)propanamide] showed an MIC of 8 mg/L (≈ 23.2 µM).

From patent publication US7094900B2, “N-Aryl-2-oxazolidinones and their derivatives” (Pharmacia & Upjohn Company LLC, priority 2002, dated 2006)
